Where “and” joins values, the source holds several entries; their conditions need not be identical. Equal entries are not always repeated. Entries after “also recorded” stand apart in the source; their conditions may differ. Marks after values point to notes of the source that are not given here.
How the values were obtained:
[1] = system: Enterococcus faecalis NCTC 12697; assay: Biofilm formation on plastic coated UV beads; assay type: cell-based; details: different concentrations of Fe-QA; T=0 and T=24 h
Protocol: (§1) Bacteria (Enterococcus faecalis NCTC 12697, Staphylococcus epidermidis F1513 and Staphylococcus aureus ATCC 25923) were grown on Brain heart infusion (BHI) passaged to new medium either containing Fe-QA or alone. Growth suspensions were prepared at 0.0001 OD/mi and then allowed to grow at 37° C. under nounal atmospheric conditions for 24 h in BHI with plastic coated UV beads (Lascells). […], 10 μl suspension was serially diluted 10 fold to 10-3, 10-4, 10-5, 10-6, 10-7, 10-8. For each dilution, 10 μl was spotted on BHI agar plates and colonies counted after 24 h. The beads were also removed washed in PBS before adding to 1 ml PBS. After vortex mixing, 10 μl of the cell suspension was serially diluted as above and cell counts carried out.

[2] = system: Staphylococcus aureus ATCC 25923; assay: Biofilm formation on plastic coated UV beads; assay type: cell-based; details: different concentrations of Fe-QA; T=0 and T=24 h
Protocol: as §1

[3] = system: Staphylococcus epidermidis F1513; assay: Biofilm formation on plastic coated UV beads; assay type: cell-based; details: different concentrations of Fe-QA; T=0 and T=24 h
Protocol: as §1

[4] = system: Pseudomonas aeruginosa PAO-1; assay: Biofilm coverage rate on glass slide; assay type: cell-based; details: 100 μM; 72 hours
[5] = system: uropathogenic Escherichia coli UPEC-536; assay: Biofilm coverage rate on glass slide; assay type: cell-based; details: 0.1 μM, 1 μM, 10 μM and 100 μM; 72 hours; listed as Fe-QA
[6] = system: Enteropathogenic E. coli (EPEC) E2348/69; assay: Crystal violet assay of attachment to plastic well surface; assay type: cell-based; details: 48 hours
Protocol: (§2) Enteropathogenic E. coli (EPEC) E2348/69 were grown in wells for 48 hours at 37° C. in the presence of FeQ (100 μM), and in the absence of FeQ (as control). After 48 hours, the wells were washed in order to remove suspended cells. Crystal violet was then added to each well. The wells were then washed to remove excess dye. A mixture of acetone/ethanol was then added to the wells to re-suspend any cells attached to the plastic surface of the wells, and dissolve any dye present. The presence of dye in each well was then quantified by measuring the O.D. at 570 nm.
as §2, with “FeDOPA (10-250” for “FeQ (100”, “FeDOPA” for “FeQ”

[7] = system: bacterial flora present in the mouth; assay: Biofilm formation on extracted human teeth (CEPLAC staining); assay type: cell-based; details: FeQ 340 μM; 48 hours of culturing
Protocol: Molar teeth were extracted from human patients, and mouth swabs taken from each patient to obtain samples of each patient's bacterial flora present in the mouth. The mouth swabs were cultured in the laboratory using LB media in order to grow bacterial populations ordinarily present in the mouth of each patient. The extracted teeth were washed and brushed extensively using PBS buffer and ethanol. Each patient's tooth was then placed in the bacterial culture prepared from that patient's bacterial flora sample, and cultured aerobically for 24 hours in LB media. The teeth were then stained with CEPLAC™ (Manx Healthcare Ltd, Warwick, UK), and washed three times with PBS-Tween (50 mL) to determine if biofilm had been formed on the teeth.
All teeth stained red indicating the presence of biofilm on the teeth after just 24 hours. The same teeth were then cleaned using PBS buffer and ethanol, and the procedure repeated except with 48 hours of culturing in the presence of FeQ (340 μM).

[8] = Broiler trial: growth performance; assay type: in vivo, chicken (Ross 308 male broilers)
Protocol: (§3) A study was performed to evaluate growth promotion and reduction of Campylobater carriage using FeQ and FeTyr in Ross 308 male broilers with 7 treatment groups. Each treatment group comprised four replicates of 10 birds per pen (40 birds/treatment group and 4 pens of 10 birds/treatment group), and there were 2 control groups and 5 test groups. All the test groups and one of the control groups were exposed at day 20 of the trial to dirty litter, which tested positive for Campylobacter. This method was used to provide a more natural method to Campylobater challenge the birds. Thus there was a positive control where one treatment group was challenged with Campylobacter and one negative control group where the birds were not challenged, and five treatment groups that were all challenged with Campylobacter. The total number of birds used in the 7 treatment groups was 280. Treatment group 1 was a negative control where birds just received the commercial feed, and were not challenged with dirty litter containing Campylobacter. Treatment group 2 was the positive control where the birds received the commercial feed, and were challenged with dirty litter containing Campylobater at day 20. Treatment group 3 received 0.22 g/L of FeQ in their drinking water and 0.22 g/Kg FeQ in their feed during the entire trial, and was challenged with dirty litter containing Campylobater at day 20. Treatment group 5 received 0.22 g/L of FeQ in their drinking water during the entire trial, and was challenged with dirty litter containing Campylobater at day 20. Treatment group 6 received 0.22 g/kg FeQ in their feed during the entire trial, and was challenged with dirty litter containing Campylobater at day 20. Treatment group 7 received 0.022 g/L FeQ in their drinking water during the entire trial, and was challenged with dirty litter containing Campylobater at day 20. Treatment group 8 received 0.02 g/L FeTyr in their drinking water during the entire trial, and was challenged with dirty litter containing Campylobater at day 20. The FeTyr was pre-dissolved in DMSO, and diluted to provide a solution of 0.02 g/L of FeTyr in water. (An additional treatment group 4 was terminated due to solubility issues.)
The birds were fed with a commercial three-phase feeding program using starter, grower and finisher feeds with formulations shown in Table 2. All diets had coccidiostat (MAXIBAN® at 0.0625% in starter and […] and MONTEBAN® at 0.06% in finisher phase). Xylanase (RONOZYME® WX at 200 g per ton) and phytase (RONOZYME® P at 150 grams per ton) were added to all diets.
The feeding program is show in Table 3. The birds were reared in floor pens to day 42, and fed starter, grower and finisher feed at day 0 to 11, 11 to 24, and 24 to 42 days, respectively. All birds were weighed individually and feed weigh backs recorded per pen at day 0, 11, 21, 24 and 42 days.
Prior to challenging the chickens with dirty litter containing Campylobacter at day 20, each pen was tested for Campylobater using cloacal swabs. All pens tested negative for Campylobater prior to the challenge. At day 20, litter, which was naturally Campylobacter-contaminated was tested to confirm the presence of Campylobacter, and then added (approximately 2 kg/pen) to the litter in all pens except in pens for treatment group 1 (the negative control). At day 28, the pen litter was sampled to confirm the presence or absence of Campylobacter. At day 41 and 42, caecal samples were taken from 3 birds per pen (12 birds per treatment group) and tested for Campylobater enumeration. At day 42, digesta, fecal samples, and caecal content was taken from all birds, and pooled per pen. Two birds per pen were also taken from treatment groups 1-3, euthanized, and blood samples taken. […]

Campylobacter = assay: Broiler trial: Campylobacter carriage in droppings and caeca; assay type: in vivo; details: chickens challenged day 20
Protocol: as §3
Prior to challenging the chickens with dirty litter containing Campylobacter at day 20, each pen was tested for Campylobater using cloacal swabs. All pens tested negative for Campylobater prior to the challenge. At day 20, litter, which was naturally Campylobacter-contaminated was tested to confirm the presence of Campylobacter, and then added (approximately 2 kg/pen) to the litter in all pens except in pens for treatment group 1 (the negative control). At day 28, the pen litter was sampled to confirm the presence or absence of Campylobacter. At day 41 and 42, caecal samples were taken from 3 birds per pen (12 birds per treatment group) and tested for Campylobater enumeration. At day 42, digesta, fecal samples, and caecal content was taken from all birds, and pooled per pen. Two birds per pen were also taken from treatment groups 1-3, euthanized, and blood samples taken. Samples were analyzed for blood chemistry, including analysis for alkaline phosphatase, aspartate amino transferase, alanine amino transferase, gamma-glutamyl transferase, lactate dehydrogenase, total protein, albumin, globulin, amylase and glucose.

[9] = Treatment of an acne patient; assay type: in vivo, human
Protocol: A patient was treated continuously for 30 days by applying a solution of ferric quinate (340 μM) to their acne vulgarism (“acne”) once each day. Within 5 days of the start of treatment, their acne, which had not previously responded to treatment with antibiotics, began to show signs of healing.

[10] = system: PAO-1 strains of Pseudomonas aeruginosa; assay: Biofilm formation on contact lens (ESEM); assay type: cell-based; details: 340 μM in LB, 37° C., 24 hours
Protocol: To investigate biofilm formation on the contact lens, clinically determined PAO-1 strains of Pseudomonas aeruginosa were incubated with the lenses in either Luria-Bertani Media (LB) or LB with a final concentration of 340 μM FeQ at 37° C. for 24 hours in a non-shaking incubator. The lenses were then washed 6 times with PBS+0.05% Tween, before being stored overnight in PBS+0.05% Tween. In preparation for the ESEM, formaldehyde was added to a final concentration of 1% and incubated for 10 minutes in order to inactivate the bacteria. The lenses were then washed 4 times with PBS+0.05% Tween, and immediately before analysis the lenses were washed a further two times with distilled water.

[11] = system: mature EPEC-ΔcsrA biofilm; assay: Disruption of preformed biofilm, BioFlux system; assay type: cell-based, E. coli; details: FeDOPA 100 μM; 20 hours
[12] = FeQ treatments 3, 5, 6, 7, FeTyr treatment 8, challenged day 20
[13] = treatment 3: 0.22 g/L FeQ in water + 0.22 g/kg FeQ in feed, challenged day 20
[14] = treatment 5: 0.22 g/L FeQ in water, challenged day 20
[15] = treatment 6: 0.22 g/kg FeQ in feed, challenged day 20
[16] = treatment 7: 0.022 g/L FeQ in water, challenged day 20

O=C([O-])C1(O)CC(O)C(O)C(O)C1.O=C([O-])C1(O)CC(O)C(O)C(O)C1.O=C([O-])C1(O)CC(O)C(O)C(O)C1.[Fe+3] (stereo not drawn) [FeQ, ferric quinate]
biofilm formation on plastic coated UV beads [1]: inhibited E. faecalis biofilm formation | biofilm formation on plastic coated UV beads [2]: inhibited S. aureus biofilm formation | biofilm formation on plastic coated UV beads [3]: inhibited S. epidermidis biofilm formation | biofilm formation (coverage rate on glass slide) [4]: inhibits the formation of biofilm | biofilm formation (coverage rate on glass slide) [5]: inhibits founation of biofilm; also recorded: inhibits the formation of biofilm | attachment of EPEC cells to plastic well surface (crystal violet O.D. at 570 nm) ([6]; FeQ 100 μM): little or no attachment of bacterial cells to the surface and no biofilm formation | biofilm on teeth (red CEPLAC staining) [7]: no teeth stained red | MFCR (mortality adjusted feed conversion ratio) 0-20 ([8]; FeQ groups 3, 5, 6, 7 pooled, absence of Campylobacter challenge): 1.2996 | MFCR at day 42 versus positive control [8, 12]: positive effect on MFCR | average body weight at day 42 versus positive control [8, 12]: positive effect on growth | ABW (average body weight) Day 0 [8, 13]: 0.040 kg | MFCR (mortality adjusted feed conversion ratio) Day 0-11 [8, 13]: 1.181^ab | MFCR (mortality adjusted feed conversion ratio) Day 0-42 [8, 13]: 1.595 | ABW (average body weight) Day 0 [8, 14]: 0.040 kg | MFCR (mortality adjusted feed conversion ratio) Day 0-11 [8, 14]: 1.210^ab | MFCR (mortality adjusted feed conversion ratio) Day 0-42 [8, 14]: 1.560 | ABW (average body weight) Day 0 [8, 15]: 0.041 kg | AFD (average feed intake) Day 0-11 [8, 15]: 0.360 kg | AWG (average weight gain) Day 0-11 [8, 15]: 0.310 kg | AWG (average weight gain) Day 11-20 [8, 15]: 0.640 kg | MFCR (mortality adjusted feed conversion ratio) Day 0-11 [8, 15]: 1.168^a | MFCR (mortality adjusted feed conversion ratio) Day 0-42 [8, 15]: 1.563 and 1,563 | ABW (average body weight) Day 0 [8, 16]: 0.040 kg | MFCR (mortality adjusted feed conversion ratio) Day 0-11 [8, 16]: 1.236^b | MFCR (mortality adjusted feed conversion ratio) Day 0-42 [8, 16]: 1.612 | average Campylobacter cfu/g of caeca samples at day 42 versus positive control (Campylobacter; FeQ treatments 3, 5, 6, 7, FeTyr treatment 8): lower levels of Campylobacter in their caeca; also recorded: positive effect on reducing Campylobacter infection of poultry | Campylobacter cfu/g of bird droppings at day 42 versus positive control (Campylobacter; FeQ treatments 3, 6, 7, FeTyr treatment 8): positive effect on reducing Campylobacter infection of poultry | Campylobacter colony forming units per gram of bird droppings at day 42 (Campylobacter; treatment 3: 0.22 g/L FeQ in water + 0.22 g/kg FeQ in feed): 4,860 cfu/g | Campylobacter colony forming units per gram of bird droppings at day 42 (Campylobacter; treatment 6: 0.22 g/kg FeQ in feed): 12,800 cfu/g | Campylobacter colony forming units per gram of bird droppings at day 42 (Campylobacter; treatment 7: 0.022 g/L FeQ in water): 900,000 cfu/g | acne outcome after treatment for 30 days ([9]; solution 340 μM applied once each day): completely healed | recurrence of acne after discontinuation of treatment for over one year ([9]; solution 340 μM applied once each day for 30 days): did not recur | time to first signs of healing of acne ([9]; solution 340 μM applied once each day, patient): ≤ 5 days | biofilm formation on contact lens (ESEM images) [10]: inhibits biofilm formation

Fe(DOPA)3 [FeDOPA]
attachment of EPEC cells to plastic well surface (crystal violet O.D. at 570 nm) ([6]; FeDOPA 68-250 μM): attachment of bacterial cells to the surface and biofilm formation is inhibited | dispersion of mature biofilm [11]: dispersed the biofilm

Reference: US9975914B2, “Antimicrobial preparation and uses thereof” (Akeso Biomedical, Inc., priority 2015, dated 2018)
